Reference: patent US20220313656A1, “NEW CLASS OF ANTIBIOTICS HAVING LOW MIC-VALUES TOWARDS DIFFERENT STRAINS OF BACTERIA” (priority 2019, published 2022)

Legend:
[1] = Maximum Tolerated Dose (MTD) in mice; format: in vivo; conditions: for tolerated dose: mice, observed 4-6 hrs
Description: This experiment is conducted to assess in vivo toxicity of the compounds. […] The study was performed at Statens Serum Institute. The Maximum Tolerated Dose (MTD) was investigated after intravenous (iv), intraperitonalt (ip) and peroral (po) dosing ranging from 5 mg/kg to 100 mg/kg.

[2] = Mutagenicity; conditions: data not shown
Description: The compound S43 was also assessed for mutagenicity.

[3] = test system: S. aureus USA300; experiment: MIC, serial dilution method (CLSI); format: cell-based, Staphylococcus aureus; conditions: Staphylococcus aureus, USA300, 24 h; read-out: MIC
Outline: (§1)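 Each determination was run twice. Bacteria, diluted 1:100 in Müller Hinton broth, were exposed to compound for 24 hours at 37° C without agitation, and the lowest concentration free of visible growth was recorded.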

[4] = test system: Cutibacterium acnes; experiment: MIC and MBC determination; format: cell-based; conditions: Multiresistant clinical isolate
Description: (§2) MBC-value defines the antibiotic activities by the lowest concentration of the compound needed to kill at least 99.9% of the bacteria, also known as minimum bactericidal concentration (MBC) value.
(§3) The MIC for each compound for each bacteria strain was determined by the serial dilution method following the CLSI guidelines (CLSI Clinical and Laboratory Standards Institute: Performance Standards for Antimicrobial Susceptibility Testing: […] M100-S25. Wayne, Pa., USA; 2015.) All compounds were diluted in autoclaved H2O and stored at 4° C. […] Bacterial inoculums were prepared by inoculating 9 ml of H2O with bacterial colonies from agar plate (Oxoid, Roskilde Denmark) supplemented with bovine blood to a final yield a final density of 10^8 colony forming unit (CFU)/mL using a Sensititre™ Nephelometer (Thermo Scientific, Roskilde, Denmark). These inoculums were each in diluted 1:100 in Müller Hinton (MH) broth (Sigma, Copenhagen, Denmark). From the diluted inoculums 100 μl was transferred to each well in a 96-well plate and mixed with the compound to be MIC determined. The plate was incubated for 24 hours at 37° C. (without shaking). The MIC value was determined as the lowest concentration in which no bacterial growth could be visually detected. All MIC determinations were done in duplicates. […] Since all derivatives are new, no control strains (with reference MIC values) were available.

[5] = test system: Campylobacter jejuni; experiment: MIC and MBC determination; format: cell-based; conditions: Clinical isolate
Description: as §2, §3

[6] = test system: Staphylococcus epidermidis; experiment: MIC and MBC determination; format: cell-based; conditions: Multiresistant clinical isolate
Description: as §2, §3

[7] = test system: Staphylococcus aureus MRSA 43484; experiment: Murine superficial MRSA skin infection model, topical treatment; format: in vivo; conditions: for reduction of the bacterial loads compared to vehicle treatment: topical twice daily for 3 days, day 4, Balb/C mice; for efficacy in the MRSA skin infection model: formulations at 1% and 2%, compared to vehicle
Description: This experiment is conducted to assess the effect of topical treatment of the compounds against MRSA. Compound S43 was evaluated for efficacy against Staphylococcus aureus MRSA 43484 in an murine skin infection model.
Treatment was performed twice daily for 3 days and sampling of skin biopsies was performed the day after last treatment. Treatment with Fucidic acid was included as a positive control and treatment with vehicle was included as a negative control.
48 Balb/C female mice—18-22 g—Taconic, Denmark, Staphylococcus aureus MRSA43484, Test compound A at 1 and 2% formulations, Test compound B at 2% formulation, Fucidin, 0.9% saline (sterile, SSI), 0.9% saline/Triton-x (sterile, SSI), Sterile water (SSI), 5% Horse Blood Agar plates (SSI), MRSA Brilliance agar plates, Nurofen® Junior (20 mg/ml, Novartis), Zoletil mix/Torbugesic (SSI/QC-BIO), Dermal curette—Miltex 335710.
Approximately 1 hour before inoculation, mice were treated orally with 45 μl nurofen (20 mg ibuprofen/ml corresponding to approximately […]) as pain relief. The mice were anaesthetized with 0.15 ml s.c. of Zoletil mix. The fur was removed from a 2×3-cm area on the back of each mouse by use of an electric shaver. Next, a razor was used to remove all the hair and hereafter the outer most layer of the skin was scraped off with a dermal curette to obtain a 1 cm^2 superficial skin lesion. 10 μl inoculum containing approximately 10^7 CFU was spread on the lesion. After the applied inoculum had dried, the mouse was placed in the cage and kept in a warming cabinet until fully awake.
Topical treatment of was initiated the day after inoculation, Day 1. Mice were treated twice daily (9 a.m and 3 p.m.) for three days. A volume of 50 μl was spread on the inoculated skin area.
Colony counts in the skin lesions were determined on day 1 (start of treatment) and day 4 (the day after completed treatment). The mice were sacrificed day 1 and 4 according to Table 1. The affected skin area was removed by a pair of scissors and tweezers, and collected in a tube for Dispomixer with 1 ml saline. The skin sample was homogenized in a Dispomixer. Each sample was serial diluted in saline/Triton-x and 20-μl spots were applied on MRSA Brillince agar plates. All agar plates were incubated 20-48 hrs at 35° C.

[8] = test system: Escherichia coli E2; experiment: MIC, serial dilution method (CLSI); further: values in mg/L; format: cell-based; conditions: E. coli E2, ESBL; duplicates a/b
Description: as §3

[9] = test system: E. faecalis; experiment: MIC, serial dilution method (CLSI); format: cell-based, Enterococcus faecalis; conditions: Enterococcus faecalis, 24 h; read-out: MIC
Outline: as §1

[10] = test system: S. aureus CC398; experiment: MIC, serial dilution method (CLSI); format: cell-based, Staphylococcus aureus; conditions: Staphylococcus aureus, MRSA, 24 h; read-out: MIC
Outline: as §1

[11] = test system: Staphylococus pseudintermedius; experiment: MIC, serial dilution method (CLSI); format: cell-based, Staphylococcus pseudintermedius; conditions: Staphylococcus pseudintermedius, 24 h; read-out: MIC
Outline: as §1

[12] = test system: Escherichia coli E6; experiment: MIC, serial dilution method (CLSI); further: values in mg/L; format: cell-based; conditions: E. coli E6, ESBL; duplicates a/b
Outline: as §1

[13] = test system: Streptococcus equi; experiment: MIC, serial dilution method (CLSI); format: cell-based; conditions: 24 h, read-out: MIC
Outline: as §1

[14] = test system: Escherichia coli ESBL1; experiment: MIC, serial dilution method (CLSI); further: values in mg/L; format: cell-based; conditions: E. coli ESBL1, Tetracycline resistant; duplicates a/b
Outline: as §1

[15] = test system: Escherichia coli ESBL37; experiment: MIC, serial dilution method (CLSI); further: values in mg/L; format: cell-based; conditions: E. coli ESBL37, Tetracycline resistant; duplicates a/b
Outline: as §1

[16] = test system: Salmonella enteritidis; experiment: MIC, serial dilution method (CLSI); format: cell-based; conditions: Salmonella enterica, ENTERITIDIS, 24 h; read-out: MIC
Outline: as §1

[17] = test system: Escherichia coli E38; experiment: MIC, serial dilution method (CLSI); further: values in mg/L; format: cell-based; conditions: E. coli E38, ESBL; duplicates a/b
Outline: as §1

[18] = test system: Listeria monocytogenes; experiment: MIC, serial dilution method (CLSI); format: cell-based; conditions: 24 h, read-out: MIC
Outline: as §1

[19] = test system: Escherichia coli ESBL28; experiment: MIC, serial dilution method (CLSI); further: values in mg/L; format: cell-based; conditions: E. coli ESBL28, Tetracycline resistant; duplicates a/b
Outline: as §1

[20] = test system: Escherichia coli ESBL19; experiment: MIC, serial dilution method (CLSI); further: values in mg/L; format: cell-based; conditions: E. coli ESBL19, Tetracycline resistant; duplicates a/b
Outline: as §1

[21] = test system: Escherichia coli ESBL46; experiment: MIC, serial dilution method (CLSI); further: values in mg/L; format: cell-based; conditions: E. coli ESBL46, Tetracycline resistant; duplicates a/b
Outline: as §1

[22] = test system: Escherichia coli E24; experiment: MIC, serial dilution method (CLSI); further: values in mg/L; format: cell-based; conditions: E. coli E24, ESBL; duplicates a/b
Outline: as §1

[23] = test system: Escherichia coli E5; experiment: MIC, serial dilution method (CLSI); further: values in mg/L; format: cell-based; conditions: E. coli E5, ESBL; duplicates a/b
Outline: as §1

[24] = test system: Bacillus cereus; experiment: MIC, serial dilution method (CLSI); format: cell-based; conditions: 24 h, read-out: MIC
Outline: as §1

[25] = test system: Escherichia coli E4; experiment: MIC, serial dilution method (CLSI); further: values in mg/L; format: cell-based; conditions: E. coli E4, ESBL; duplicates a/b
Outline: as §1

[26] = test system: Escherichia coli ESBL10; experiment: MIC, serial dilution method (CLSI); further: values in mg/L; format: cell-based; conditions: E. coli ESBL10, Tetracycline resistant; duplicates a/b
Outline: as §1

[27] = test system: E. faecium; experiment: MIC, serial dilution method (CLSI); format: cell-based, Enterococcus faecium; conditions: Enterococcus faecium, 24 h; read-out: MIC
Outline: as §1

[28] = test system: E. coli APEC O2; experiment: MIC, serial dilution method (CLSI); format: cell-based, Escherichia coli; conditions: Escherichia coli, APECO2, 24 h; read-out: MIC
Outline: as §1

**Q.** Which tolerability ([1]; mice dosed twice po with 100 mg/kg) does the source give for CC(C)=CCCC(C)CC[N+](C)(C)CCCN1c2ccccc2Sc2ccccc21.Cc1ccc(S(=O)(=O)[O-])cc1 (stereo not shown) [Compound S43, N-(3-(10H-phenothiazin-10-yl)propyl)-N,N,3,7-tetramethyloct-6-en-1-aminium 4-methylbenzenesulfonate] here?
**A.** The tolerability was “no signs of discomfort”.

**Q.** And the tolerated dose ([1]; ip dosing)?
**A.** Its tolerated dose is “up to 10 mg/kg”.

**Q.** And the tolerated dose ([1]; iv dosing)?
**A.** Its tolerated dose is “up to 10 mg/kg”.

**Q.** And the mutagenic potential [2]?
**A.** The mutagenic potential was “did not show indications of mutagenic potential”.

**Q.** And the MIC [3]?
**A.** Its MIC is 2 µg/mL.

**Q.** And the MBC [4]?
**A.** The MBC was 1 µg/mL.

**Q.** What about the MIC [4] of the same compound?
**A.** The MIC was 1 µg/mL.

**Q.** What about the MBC [5] of the same compound?
**A.** The MBC was 1 µg/mL.

**Q.** And the MIC [5]?
**A.** Its MIC is 1 µg/mL.

**Q.** And the MBC [6]?
**A.** The MBC was 2 µg/mL.

**Q.** And the MIC [6]?
**A.** Its MIC is 2 µg/mL.

**Q.** And the “reduction of the bacterial loads compared to vehicle treatment” value ([7]; 1% formulation)?
**A.** The value was 3.0 log10 CFU.

**Q.** And the “reduction of the bacterial loads compared to vehicle treatment” value ([7]; 2% formulation)?
**A.** Its value is 3.7 log10 CFU.

**Q.** And the “efficacy in the MRSA skin infection model” value ([7]; 4-methylbenzenesulfonate)?
**A.** The value was “significant reduction of the bacterial loads”.

**Q.** What about the “efficacy in the MRSA skin infection model” value ([7]; listed as 43, 4-methylbenzenesulfonate) of the same compound?
**A.** The value was “highly effective”.

**Q.** Which MIC [8] does the source give for CCCCCCCCCCCC[N+](C)(C)CCCN1c2ccccc2Sc2ccc(Cl)cc21.[Br-] [Compound S7, N-(3-(2-chloro-10H-phenothiazin-10-yl)propyl)-N,N-dimethyldodecan-1-aminium bromide] here?
**A.** The MIC was 8/4.

**Q.** And the MIC [9]?
**A.** The MIC was 0.5 µg/mL.

**Q.** And the MIC [10]?
**A.** The MIC was 0.25 µg/mL.

**Q.** What about the MIC [3] of the same compound?
**A.** The MIC was 0.5 µg/mL.

**Q.** And the MIC [11]?
**A.** Its MIC is 0.25 µg/mL.

**Q.** What about the MIC [12] of the same compound?
**A.** The MIC was 4/4.

**Q.** What about the MIC [13] of the same compound?
**A.** The MIC was 1 µg/mL.

**Q.** What about the MIC [14] of the same compound?
**A.** The MIC was 4/4.

**Q.** What about the MIC [15] of the same compound?
**A.** Its MIC is 4/4.

**Q.** And the MIC [16]?
**A.** Its MIC is 16 µg/mL.

**Q.** And the MIC [17]?
**A.** The MIC was 4/4.

**Q.** What about the MIC [18] of the same compound?
**A.** The MIC was 0.25 µg/mL.

**Q.** What about the MIC [19] of the same compound?
**A.** The MIC was 4/4.

**Q.** And the MIC [20]?
**A.** Its MIC is 4/4.

**Q.** And the MIC [21]?
**A.** Its MIC is 4/8.

**Q.** What about the MIC [22] of the same compound?
**A.** The MIC was 4/4.

**Q.** What about the MIC [23] of the same compound?
**A.** Its MIC is 4/4.

**Q.** What about the MIC [24] of the same compound?
**A.** Its MIC is 0.25 µg/mL.

**Q.** And the MIC [25]?
**A.** The MIC was 4/4.

**Q.** And the MIC [26]?
**A.** The MIC was 8/8.

**Q.** And the MIC [27]?
**A.** Its MIC is 0.25 µg/mL.

**Q.** What about the MIC [28] of the same compound?
**A.** Its MIC is 4 µg/mL.
